Read-outs that look alike come from different tables or passages of the source.
Legend:
[1] = system: morphine physical dependence; test: Morphine physical dependence (naloxone-precipitated withdrawal signs); format: in vivo, rat (male Sprague Dawley)
Method: (§1) Adult male Sprague Dawley (226-275 g) were purchased from Taconic Laboratories and maintained on a 12-hour/12-hour light/dark cycle with the lights off at 9:30 a.m. in a temperature- and humidity-controlled animal care facility. For the duration of the experiment, rats were housed two per cage and given unrestricted access to food and water at all times when in the home cage.
Rats were implanted (SC, flank area) with 75 mg morphine pellets that remained intact for 7 days. Beginning on the day of pellet implantation, rats received daily injections of saline or RAP-103 (0.001, 0.1 or 1 mg/kg, IP, delivered in […]) throughout chronic morphine exposure. On the test day, rats were transported to the testing room and allowed to acclimate for 60 min before naloxone hydrochloride (10 mg/kg, IP, delivered in a 1 ml/kg volume) was injected to precipitate withdrawal signs. Immediately after naloxone administration, rats were placed into individual observation boxes and observed for 60 min. A modified version of the Gellet-Holtzman scale was used to grade withdrawal signs. Wet dog shakes, teeth chattering, eye blinks, and paw tremor were evaluated as the number of qualitatively observed occurrences over the 60-min test time.
Respiratory depression data were analyzed by two-way ANOVA (RAP-103 pretreatment×morphine treatment) followed by a Bonferroni's multiple comparison test. Physical dependence data were analyzed by a Student's t-test. Self-administration (SA) time-course data for heroin and sucrose were analyzed by two-way ANOVA (RAP-103 treatment x day) followed by a Bonferroni's multiple comparison test. SA PR challenge data were analyzed by a Student's t-test. Protein and mRNA data were analyzed by two-way ANOVA (RAP-103 pretreatment x morphine treatment) followed by a Newman-Keuls post-hoc analysis. In all cases, P<0.05 was considered statistically significant.

[2] = system: mu-opioid receptor (OPRM1)
[3] = system: CCR2; details: CCR2, monocyte chemotaxis; read-out: half maximal inhibitory concentration IC50; cited from earlier work
[4] = system: pain pathways; details: cited from earlier work
[5] = system: CXCR4
[6] = system: GFAP mRNA
[7] = system: CCR2; details: cited from earlier work
[8] = system: molecular hallmarks of neuropathic pain; details: previous research; cited from earlier work
[9] = format: in vivo, Rhesus macaque (Macaca mulatta)
Method: In non-human primates (rhesus monkeys) RAP-103 was dosed once on Day 1 by intravenous bolus injection at 1 mg/kg and plasma levels determined. […] Drug in plasma after a single IV dose (1 mg/Kg) was still measurable at anticipated therapeutic levels 96 hrs. post-dose in non-human primates as shown in FIG. 10B.

[10] = system: CXCR4; details: cited from earlier work
[11] = system: CCR2
[12] = system: heroin self-administration; test: Heroin intravenous self-administration (FR and PR); format: in vivo, rat (male Sprague Dawley); details: RAP-103 1 mg/kg IP
Excerpt: as §1
Rats were anesthetized using vaporized isoflurane delivered via nebulizer. An indwelling silastic catheter was threaded subcutaneously over the shoulder blade, inserted in the jugular vein and sutured in place. The catheter routed to a cotton back mount platform that was sutured below the skin between the shoulder blades. Post-operation, catheters were flushed daily with 0.2 ml of timentin (0.93 mg/mL) dissolved in heparinized saline and covered with magnetic aluminum caps.
Following 5 days of post-operative recovery, rats began daily intravenous self-administration of heroin in Med-Associates operant chambers for at least 10 d. […] During IVSA, infusions of 0.1 mg/kg/inf heroin were rewarded to the animal after pressing the active lever. […]
Progressive ratio (PR) schedules of drug delivery are used to determine the ‘motivational’ state of an animal and drug reinforcing efficacy. […] BP is a dependent measure used to quantify the degree to which the subject will work to get the next administration of the drug which serves as a reinforcer in the self-administration paradigm. […]
Respiratory depression data were analyzed by two-way ANOVA (RAP-103 pretreatment×morphine treatment) followed by a Bonferroni's multiple comparison test. Physical dependence data were analyzed by a Student's t-test. Self-administration (SA) time-course data for heroin and sucrose were analyzed by two-way ANOVA (RAP-103 treatment x day) followed by a Bonferroni's multiple comparison test. SA PR challenge data were analyzed by a Student's t-test. Protein and mRNA data were analyzed by two-way ANOVA (RAP-103 pretreatment x morphine treatment) followed by a Newman-Keuls post-hoc analysis. […]

[13] = system: CCR8; details: cited from earlier work
[14] = format: in vivo, Rhesus macaque (Macaca mulatta); details: seven days
[15] = RAP-103 0.001, 0.1 mg/kg IP, P>0.05, reduced trend
[16] = RAP-103 only vs drug-naïve, P>0.05

## D-Thr-D-Thr-D-Asn-D-Tyr-D-Thr [RAP-103]
[1]; [15]
  naloxone-precipitated eye blinking: did not significantly impact
  naloxone-precipitated wet dog shakes: did not significantly impact
[1]; RAP-103 1 mg/kg IP daily, morphine 75 mg pellet 7 d, naloxone 10 mg/kg IP, P<0.01
  reduction of frequency of wet dog shakes: approximately 43%
[1]; RAP-103 1 mg/kg IP daily, morphine 75 mg pellet 7 d, naloxone 10 mg/kg IP, P<0.05
  reduction of frequency of eye blinking: approximately 59%
[1]; any dose of RAP-103
  paw tremor: not affected
  teeth chattering: not affected
[2]; RAP-103 + morphine, vs drug-naïve (P<0.01) and morphine only (P<0.05)
  OPRM1 protein levels, PFC: significantly elevated
[2]; RAP-103 pretreatment 1 mg/kg IP + morphine, P<0.05
  OPRM1 protein levels, VTA: normalized the morphine-induced enhancement in OPRM1 levels
[3]
  IC50: 4.2 pM
[4]
  monocyte infiltration: reduces
  spinal microglial activation: reduces
[5]; RAP-103 1 mg/kg IP + morphine
  CXCR4 protein levels, VTA: did not alter morphine enhancement of CCR2 or CXCR4
[5]; [16]
  CXCR4 protein levels, NAC: did not display significantly different levels
  CXCR4 protein levels, VTA: not significantly different
[6]; RAP-103/morphine exposure, P>0.05
  GFAP mRNA, PFC: significant changes in GFAP or IBA1 were not detected
[6]; RAP-103 pretreatment + morphine, P<0.05
  GFAP gene expression, NAC: normalized the augmentation in GFAP gene expression
[6]; RAP-103 pretreatment, morphine-naïve and morphine-treated rats, vs drug-naïve, P<0.05
  GFAP mRNA levels, VTA: significantly reduced GFAP mRNA levels
[7]
  inhibition of chemokine ligand binding, CCR2: at least partially inhibits
[8]
  cell membrane ruffling: downregulate
  immune cell migration: downregulate
  phagocytosis: downregulate
[9]; intravenous bolus 1 mg/kg
  AUC 0-T, male vs female: comparable in male and female monkeys
  Cmax, male vs female: comparable in male and female monkeys
[9]; males, 1 mg/kg, rhesus monkeys
  absolute bioavailability: 89%
[9]; non-human primates (Rhesus macaque), 1 mg/kg
  oral bioavailability: 88%
[9]; primates, 1 mg/kg
  oral bioavailability: > 88%
[9]; single IV dose 1 mg/kg, post-dose
  time drug in plasma still measurable at anticipated therapeutic levels: ≥ 96 h
[10]
  inhibition of chemokine ligand binding, CXCR4: at least partially inhibits
[11]; RAP-103 1 mg/kg IP + morphine
  CCR2 protein levels, VTA: did not alter morphine enhancement of CCR2
[11]; RAP-103 by itself vs drug-naïve, P<0.05
  CCR2 protein levels, PFC: reduction in CCR2 protein levels
[11]; [16]
  CCR2 protein levels, NAC: did not display significantly different levels
  CCR2 protein levels, VTA: not significantly different
[11]; RAP-103 pretreatment 1 mg/kg IP + morphine, P<0.01
  CCR2 protein levels, NAC: normalized morphine-induced deficits in CCR2 levels
[12]
  responding on the inactive lever: did not impact responding on the inactive lever
[12]; PR challenge, P<0.05 vs saline
  heroin PR breakpoint: significantly lower breakpoints
[12]; heroin 0.1 mg/kg/inf, days 8 (P<0.05), 9 and 10 (P<0.001)
  active lever responding (heroin SA, FR-1): significantly reduced active lever responding
[13]
  inhibition of chemokine ligand binding, CCR8: at least partially inhibits
[14]
  acute toxicity: no acute toxicity
  body weights: no RAP-103-related changes
  clinical observations: no RAP-103-related changes
